In patent US6911330B1, “Recombinant secoisolariciciresinol dehydrogensase, and methods of use” (Washington State University Research Foundation, priority 1998, dated 2005):

Tests used:
[1] = biological target: T1, pinoresinol/lariciresinol reductase (Forsythia intermedia, UniProt P93143); conditions: incubation with (±)-pinoresinols in presence of NADPH; cited from earlier work
T1 construct: host or cells: E. coli, pSBETa vector
T1 sequence (P93143 1-312): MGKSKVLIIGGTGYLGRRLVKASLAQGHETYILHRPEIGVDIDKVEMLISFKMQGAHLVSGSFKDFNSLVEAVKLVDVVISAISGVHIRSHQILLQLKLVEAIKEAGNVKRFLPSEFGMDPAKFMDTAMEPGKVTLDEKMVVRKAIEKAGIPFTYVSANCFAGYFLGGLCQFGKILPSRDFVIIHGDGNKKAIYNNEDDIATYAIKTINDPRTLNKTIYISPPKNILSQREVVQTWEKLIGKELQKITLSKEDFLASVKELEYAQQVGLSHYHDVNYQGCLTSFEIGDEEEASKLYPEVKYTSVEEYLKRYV

[2] = biological target: HIV reverse transcriptase (Human immunodeficiency virus type 1 group M subtype B, UniProt P04585); conditions: cited from earlier work
cAMP-phosphodiesterase = conditions: cited from earlier work
[3] = biological target: T2, secoisolariciresinol dehydrogenase (Forsythia intermedia, UniProt Q94KL7, F122L/G175A/I11F); test: Dehydrogenase activity of recombinant enzyme expressed in E. coli; assay type: biochemical; conditions: crude supernate of E. coli expressing DEHY133
T2 construct: The dehydrogenase coding region was also excised using the Nde I sites at the 5′ and 3′ ends and cloned into the SBET vector; made in house; host or cells: E. coli B834(DE3), SBET vector
Protocol: (§1) Secoisolarciresinol dehydrogenase activity was assayed by monitoring the formation of (−)-[9′-^3H2]matairesinol. Each assay consisted of NAD (50 mM in 0.1 M potassium phosphate buffer, pH 7, 5 μl), (±)-[9,9′-^3H2]secoisolariciresinols (28 nM, 130 MBq/mmol in ethanol, 5 μl) and buffer (50 mM Tris-HCl, pH 8.8, 470 μl ). The enzymatic reaction was initiated by addition of the enzyme preparation (20 μl). After 1 h incubation at 30° C. with shaking, the mixture was extracted with EtOAc (500 μl ×2) containing unlabelled (±)-matairesinols (200 μg) as radiochemical carriers. After centrifugation (13,800×g, 5 min) the EtOAc solubles were removed, evaporated to dryness in vacuo, reconstituted in MeOH:3% acetic acid in H2O (1:1, 200 μl), and an aliquot (20 μl) subjected to reversed-phase column chromatography. The elution conditions were as follows: linear gradient acetonitrile/3% acetic acid in H2O from 10:90 to 30:70 between 0 and 35 min; then to 5:95 in 5 min and finally isocratic at 5:95 for 5 min, at a flow rate of 1 ml min^−1, and detection at 280 nm. Fractions corresponding to matairesinol were individually collected, aliquots removed for liquid scintillation counting, and the remainder freeze-dried.
(§2) [9′-^3H2]Matairesinol (0.5 kBq), collected after reversed-phase column chromatography, was reduced with LiAlH4 to give [9′-^3H2]secoisolariciresinol (0.26 kBq).
(§3) The E. coli culture containing the dehydrogenase clone was grown at 37° C. in 25 ml of SOC Kn50 medium to an O.D. of 0.5. To this was added IPTG to give a final concentration of 0.5 mM and the culture was grown at 18° C. for an additional 20 h. The cells were pelleted at 600×g 4° C. 12 min, resuspended in 5 ml of 20 mM Tris-HCl pH 8.0, 5 mM DTT buffer and repelleted. The final bacterial pellet was resuspended in 200 μL of the above buffer and sonicated 4×15 sec using a Braun-Sonic 2000 sonicator set at maximal output of −0.64. The sample was then centrifuged 20,800 ×g 4° C. 15 min and the crude supernate was assayed for dehydrogenase activity. […] The clone SMDEHY631 (SEQ ID NO:9) was also expressed in E. coli in the foregoing manner.

HIV-1 = conditions: cited from earlier work
[4] = biological target: T3, secoisolariciresinol dehydrogenase (Forsythia intermedia, UniProt Q94KL7); test: Dehydrogenase activity of recombinant enzyme expressed in E. coli; assay type: biochemical; conditions: protein produced in E. coli
T3 construct: The dehydrogenase coding region was also excised using the Nde I sites at the 5′ and 3′ ends and cloned into the SBET vector; made in house; host or cells: E. coli B834(DE3), SBET vector
Protocol: as §1, §2, §3

Molecule: COc1cc(C2OCC3C(c4ccc(O)c(OC)c4)OCC23)ccc1O (single isomer, unassigned; (+)) [(+)-pinoresinol]
- served as substrate of recombinant pinoresinol/lariciresinol reductase [1]: served as substrates

Molecule: COc1cc(C[C@H]2CO[C@H](c3ccc(O)c(OC)c3)[C@H]2CO)ccc1O [(+)-lariciresinol]
- served as substrate of recombinant pinoresinol/lariciresinol reductase [1]: served as substrates

Molecule: COc1cc(C[C@H]2C(=O)OC[C@@H]2Cc2ccc(OC)c(OC)c2)ccc1O [(−)-arctigenin]
- effectiveness against HIV due to reverse transcriptase inhibitory activity [2]: effective against HIV

Molecule: COc1cc(C[C@H]2COC(=O)[C@@H]2Cc2ccc(O)c(OC)c2)ccc1O [matairesinol]
- inhibition of cAMP-phosphodiesterase (cAMP-phosphodiesterase): inhibit

Molecule: CC(Cc1ccc(O)c(O)c1)C(C)Cc1ccc(O)c(O)c1 (stereo not shown) [nordihydroguaiaretic acid]
- effectiveness against HIV due to reverse transcriptase inhibitory activity [2]: effective against HIV

Molecule: (+)-secoisolariciresinol [(+)-antipode of secoisolariciresinol]
- conversion as substrate into (−)-lactol and (−)-matairesinol [3]: did not serve as a substrate

Molecule: (−)-pinoresinol
- served as substrate of recombinant pinoresinol/lariciresinol reductase [1]: not

Molecule: (−)-secoisolariciresinol
- conversion as substrate into (−)-lactol and (−)-matairesinol [3]: catalyzed the conversion

Molecule: (−)-trachelogenin
- inhibition of in vitro replication of HIV-1 (HIV-1): inhibits
- effectiveness against HIV due to reverse transcriptase inhibitory activity [2]: effective against HIV

B1: SMDEHY631: protein (SEQ ID NO:10) encoded by cDNA clone SEQ ID NO:9 (protein)
chain: MATSQLRTAFARRLEGKVALITGGASGVGEVTAKLFSQHGAKVAIADVQDELGHSVVEAIGLSNSTYIHCDVTNEDGVKNAVDNTVSTYGKLDIMFNNAGISDPYKPRVIDNEKADFERVLSVNVTGVFLFMKHAARIMVPARSGCIISTASLSSTMGGGSSHAYCGSKHAVLGLTRNLAVELGQFGIRVNCLSPFGLPTPLAKKFTGIENDEDLANGIERAGNLKGTKLRIEDVANAALFLASDEAQYVSGQNLFIDGGFSVCNSAIKLFQYPDS
modifications: Forsythia x intermedia
- catalysis of conversion of (−)-secoisolariciresinol into (−)-matairesinol by protein of the clone [4]: catalyzed the stereochemical conversion

B2: SMDEHY321: protein (SEQ ID NO:4) encoded by cDNA clone SEQ ID NO:3 (protein)
chain: MAATSQVLTAIARRLEGKVALITGGASGIGETTAKLFSQHGAKVAIADVQDELGHSVVEAIGTSNSTYIHCDVTNEDGVKNAVDNTVSTYGKLDIMFSNAGISDPNRPRIIDNEKADFERVFSVNVTGVFLCMKHAARVMIPARSGNIISTASLSSTMGGGSSHAYCGSKHAVLGLTRNLAVELGQFGIRVNCLSPFGLPTALGKKFSGIKNEEEFENVINFAGNLKGPKFNVEDVANAALYLASDEAKYVSGHNLFIDGGFSVCNSVIKVFQYPDS
modifications: Forsythia x intermedia
- catalysis of conversion of (−)-secoisolariciresinol into (−)-matairesinol by protein of the clone [4]: catalyzed the stereochemical conversion

B3: SMDEHY133: protein (SEQ ID NO:2) encoded by engineered cDNA clone DEHY133 (SEQ ID NO:1) (protein)
chain: MQLRTAFARRLEGKVALITGGASGIGETTAKLFSQHGAKVAIADVQDELGHSVVEAIGTSNSTYIHCDVTNEDGVKNAVDNTVSTYGKLDIMFSNAGISDPNRPRIIDNEKADFERVLSVNVTGVFLCMKHAARVMIPARSGNIISTASLSSTMGGGSSHAYCGSKHAVLALTRNLAVELGQFGIRVNCLSPFGLPTALGKKFSGIKNEEEFENVINFAGNLKGPKFNVEDVANAALYLASDEAKYVSGHNLFIDGGFSVCNSVIKVFQYPDS
modifications: Forsythia x intermedia
- catalysis of conversion of (−)-secoisolariciresinol into (−)-matairesinol by protein of the clone [4]: catalyzed the stereochemical conversion
